# Active and inactive are the calls of the source.
# Columns and labels:
# H9c2 = test: cells; assay type: functional, cell-based; settings: Rattus norvegicus, H9c2, Myocardium;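 further: confirmatory concentration-response retest of ultra-high-throughput screening hits for modulation of myocardial damage; cell death induced by hydrogen peroxide oxidative stress; compound pretreatment for 60 min then peroxide exposure for 2 h; potency is for protecting the cells against peroxide damage rather than for killing them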
# [1] = target: T1, Microphthalmia-associated transcription factor (Homo sapiens, UniProt O75030); test: TRPM1 promoter luciferase signal decrease, dose response, MITF inhibitor project, cell-based, SK-MEL-5, cherry-picked, set 3 (AID 493073); assay type: functional
# T1 sequence (O75030 whole entry): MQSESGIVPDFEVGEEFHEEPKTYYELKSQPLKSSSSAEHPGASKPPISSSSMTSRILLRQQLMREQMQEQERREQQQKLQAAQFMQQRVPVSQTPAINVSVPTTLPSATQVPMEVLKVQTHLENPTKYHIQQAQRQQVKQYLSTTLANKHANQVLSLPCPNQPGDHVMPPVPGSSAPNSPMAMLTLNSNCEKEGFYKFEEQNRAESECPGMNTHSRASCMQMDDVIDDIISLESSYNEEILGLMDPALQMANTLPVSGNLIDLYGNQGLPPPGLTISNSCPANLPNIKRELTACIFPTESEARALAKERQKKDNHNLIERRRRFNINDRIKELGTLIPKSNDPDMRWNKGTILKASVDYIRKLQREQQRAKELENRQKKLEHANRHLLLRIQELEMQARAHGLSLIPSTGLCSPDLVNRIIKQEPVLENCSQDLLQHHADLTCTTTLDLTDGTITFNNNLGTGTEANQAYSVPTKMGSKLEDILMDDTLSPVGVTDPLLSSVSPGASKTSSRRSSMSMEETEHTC
# [2] = Luminescence Cell-Based Dose Retest to Confirm Inhibitors of Cancer Stem Cells. [Related pubchem assays (depositor defined):AID2717, AID2721]; assay type: functional; settings: Homo sapiens
# Paired box protein Pax-8 = Paired box protein Pax-8 (Homo sapiens, UniProt Q06710); test: inhibitors of PAX8-driven TPO luciferase reporter, dose response, RMG-I cells, cherry-pick (AID 687027); assay type: functional, cell-based;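 further: luciferase reporter driven by Pax8 target thyroperoxidase promoter measured by SteadyGlo luminescence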
# [3] = target: T2, Replicative DNA helicase DnaB (Mycobacterium tuberculosis, UniProt P9WMR3); test: DnaB intein splicing inhibitors, dose response, biochemical, cell-free fluorescence (AID 449749); assay type: functional
# T2 sequence (P9WMR3 whole entry): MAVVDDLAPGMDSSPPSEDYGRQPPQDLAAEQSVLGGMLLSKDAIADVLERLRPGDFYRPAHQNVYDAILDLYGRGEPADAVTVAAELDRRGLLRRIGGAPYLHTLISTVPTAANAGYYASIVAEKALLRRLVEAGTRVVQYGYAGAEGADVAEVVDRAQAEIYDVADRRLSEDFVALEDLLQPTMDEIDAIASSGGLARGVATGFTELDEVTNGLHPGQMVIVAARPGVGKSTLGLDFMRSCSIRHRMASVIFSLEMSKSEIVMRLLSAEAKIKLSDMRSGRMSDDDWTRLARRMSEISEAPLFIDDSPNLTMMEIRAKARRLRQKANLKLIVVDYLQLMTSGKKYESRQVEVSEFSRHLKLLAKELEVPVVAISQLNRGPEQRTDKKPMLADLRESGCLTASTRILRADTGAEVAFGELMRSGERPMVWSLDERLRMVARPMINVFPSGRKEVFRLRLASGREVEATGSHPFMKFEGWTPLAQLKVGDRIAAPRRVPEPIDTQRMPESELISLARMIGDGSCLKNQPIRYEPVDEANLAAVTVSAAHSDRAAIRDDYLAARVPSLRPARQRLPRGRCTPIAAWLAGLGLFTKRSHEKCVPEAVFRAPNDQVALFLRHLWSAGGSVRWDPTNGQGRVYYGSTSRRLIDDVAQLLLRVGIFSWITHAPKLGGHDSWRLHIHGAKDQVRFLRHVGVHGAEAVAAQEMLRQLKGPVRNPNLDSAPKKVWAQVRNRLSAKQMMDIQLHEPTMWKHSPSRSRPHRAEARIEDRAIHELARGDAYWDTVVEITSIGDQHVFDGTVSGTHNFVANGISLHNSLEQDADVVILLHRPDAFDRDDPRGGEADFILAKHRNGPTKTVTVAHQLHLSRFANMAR
# Protein RecA = target: T3, Protein RecA (Mycobacterium tuberculosis, UniProt P9WHJ3); test: Fluorescence Cell-Free Homogeneous Dose Retest to Identify Inhibitors of RecA-Intein Splicing Activity. [Related pubchem assays (depositor defined):AID2097, AID2223, AID489010, AID492950]; assay type: functional
# T3 sequence (P9WHJ3 whole entry): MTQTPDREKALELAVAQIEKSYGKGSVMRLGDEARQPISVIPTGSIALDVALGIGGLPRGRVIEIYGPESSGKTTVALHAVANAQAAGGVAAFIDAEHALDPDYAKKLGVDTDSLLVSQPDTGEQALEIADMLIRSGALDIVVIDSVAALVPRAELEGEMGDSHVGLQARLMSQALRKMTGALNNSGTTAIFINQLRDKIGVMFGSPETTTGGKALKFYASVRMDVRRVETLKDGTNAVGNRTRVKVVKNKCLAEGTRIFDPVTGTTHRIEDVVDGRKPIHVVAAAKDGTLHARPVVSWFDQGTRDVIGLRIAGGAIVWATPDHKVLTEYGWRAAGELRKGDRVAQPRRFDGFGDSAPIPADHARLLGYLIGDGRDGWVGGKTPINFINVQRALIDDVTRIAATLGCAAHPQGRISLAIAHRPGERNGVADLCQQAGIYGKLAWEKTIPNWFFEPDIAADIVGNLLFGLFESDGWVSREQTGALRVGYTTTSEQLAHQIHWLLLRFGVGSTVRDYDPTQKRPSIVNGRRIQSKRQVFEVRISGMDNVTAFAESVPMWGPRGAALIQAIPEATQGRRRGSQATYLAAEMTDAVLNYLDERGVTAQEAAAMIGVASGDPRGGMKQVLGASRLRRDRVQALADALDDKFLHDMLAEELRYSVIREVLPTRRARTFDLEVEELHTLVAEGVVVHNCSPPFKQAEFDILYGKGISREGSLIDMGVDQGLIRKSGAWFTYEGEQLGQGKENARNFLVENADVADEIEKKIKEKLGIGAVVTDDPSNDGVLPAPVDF
# [4] = intracellular Trypanosoma cruzi inhibitors in host cells – cell-based, plate reader, cherry-pick samples, set 3, dose response (AID 651818); assay type: functional;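 further: compounds incubated with infected cells for about four days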
# [5] = target: Ras and Rab interactor 1/Tyrosine-protein kinase ABL1 (Homo sapiens, UniProt P00519+Q13671); assay type: functional;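 further: biochemical TR-FRET dose-response test measuring inhibition of binding between Rin1 and Abl proteins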
# BJ [6] = test: cells; assay type: functional, cell-based; settings: Homo sapiens
# BJ [7] = test: cytotoxicity toward BJ-TERT fibroblasts, dose response, cell-based, RAS-independent, luminescence (AID 1933); assay type: functional; settings: Homo sapiens
# BJ [8] = test: cytotoxicity toward BJ-TERT-LT-ST fibroblasts, dose response, cell-based, RAS-independent, luminescence (AID 1935); assay type: functional; settings: Homo sapiens;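 further: BJ fibroblasts immortalized with TERT plus LT and ST oncogenes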
# BJ [9] = test: cytotoxicity toward Ras-transformed BJeLR fibroblasts, dose response, cell-based, alamar blue fluorescence, cherrypicked samples (AID 2631); assay type: functional; settings: Homo sapiens;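 further: confirmatory dose-response assay in RAS-dependent BJ fibroblasts engineered with TERT, LT and ST, with cytotoxicity read by fluorescence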
# [10] = cytotoxicity toward DRD oncogenic fibroblasts, dose response, cell-based, non-viral oncogenic, luminescence (AID 1934); assay type: functional; settings: Homo sapiens
# [11] = HEp-2 cell cytotoxicity, dose response, cytotoxicity control for RSV inhibitor project, HTS (AID 2410); assay type: functional; settings: human respiratory syncytial virus
# Vero [12] = test: cells; assay type: functional, cell-based; settings: Chlorocebus sabaeus
# Vero [13] = test: cells; assay type: functional; settings: Chlorocebus sabaeus
# Prothrombin = Prothrombin (Homo sapiens, UniProt P00734); test: Thrombin 1536 HTS Dose Response Confirmation. [Related pubchem assays: 1046 (Thrombin 1536 HTS; hits were confirmed in this assay)]; assay type: functional
# [14] = cytotoxicity in HEK-293T cells, dose response, cytotoxicity control for TCR NF-kB inhibitor project, luminescence, T-cell screen hits (AID 489026); assay type: functional, cell-based;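 further: cells exposed to compound about 14 hours before the viability readout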
# [15] = inhibitors of intracellular T. cruzi replication, confirmation, NIH3T3 host cells, beta-gal luminescence (AID 2044); assay type: functional, cell-based;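 further: intracellular parasites grown in NIH/3T3 mouse fibroblasts as host cells; luminescent beta-galactosidase reporter signal from transgenic T. cruzi replicating inside host cells; inhibitors lower the luminescence signal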
# [16] = cytotoxicity toward NIH3T3 fibroblasts, dose response, counter-screen, cell-based, ATP luminescence, mouse fibroblasts (AID 2010); assay type: functional;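 further: cells exposed to compound for about 90 hours before reading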
# Ras and Rab interactor 1/Tyrosine-protein kinase ABL1, sequence (P00519 whole entry): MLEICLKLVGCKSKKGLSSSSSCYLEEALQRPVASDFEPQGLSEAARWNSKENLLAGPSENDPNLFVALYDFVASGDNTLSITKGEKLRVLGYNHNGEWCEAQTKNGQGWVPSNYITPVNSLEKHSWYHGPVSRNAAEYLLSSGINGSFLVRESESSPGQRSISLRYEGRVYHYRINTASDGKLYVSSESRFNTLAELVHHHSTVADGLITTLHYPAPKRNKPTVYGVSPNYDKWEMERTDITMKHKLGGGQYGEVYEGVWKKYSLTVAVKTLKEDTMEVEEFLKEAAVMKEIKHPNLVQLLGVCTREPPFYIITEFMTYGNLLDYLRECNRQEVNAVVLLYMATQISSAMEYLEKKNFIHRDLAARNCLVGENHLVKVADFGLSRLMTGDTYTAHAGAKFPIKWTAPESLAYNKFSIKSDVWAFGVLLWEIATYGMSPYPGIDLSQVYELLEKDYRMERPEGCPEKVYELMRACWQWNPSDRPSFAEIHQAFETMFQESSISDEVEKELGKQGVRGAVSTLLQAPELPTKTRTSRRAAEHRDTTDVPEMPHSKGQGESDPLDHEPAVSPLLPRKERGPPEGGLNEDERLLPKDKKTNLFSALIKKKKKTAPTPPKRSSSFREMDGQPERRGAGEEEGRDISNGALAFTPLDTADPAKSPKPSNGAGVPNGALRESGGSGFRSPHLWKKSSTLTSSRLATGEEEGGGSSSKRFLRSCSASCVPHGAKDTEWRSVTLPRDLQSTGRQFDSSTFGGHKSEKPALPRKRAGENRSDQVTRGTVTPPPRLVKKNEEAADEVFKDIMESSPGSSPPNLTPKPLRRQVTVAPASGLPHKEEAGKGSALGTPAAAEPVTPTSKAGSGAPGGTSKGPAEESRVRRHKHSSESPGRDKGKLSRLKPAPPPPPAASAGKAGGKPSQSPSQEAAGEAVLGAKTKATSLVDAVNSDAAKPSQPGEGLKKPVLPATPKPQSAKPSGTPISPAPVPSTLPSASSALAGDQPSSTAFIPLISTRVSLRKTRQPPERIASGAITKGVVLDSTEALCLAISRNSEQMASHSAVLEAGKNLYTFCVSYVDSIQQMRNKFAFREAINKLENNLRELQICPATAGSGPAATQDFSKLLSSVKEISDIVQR
# Ras and Rab interactor 1/Tyrosine-protein kinase ABL1, sequence (Q13671 whole entry): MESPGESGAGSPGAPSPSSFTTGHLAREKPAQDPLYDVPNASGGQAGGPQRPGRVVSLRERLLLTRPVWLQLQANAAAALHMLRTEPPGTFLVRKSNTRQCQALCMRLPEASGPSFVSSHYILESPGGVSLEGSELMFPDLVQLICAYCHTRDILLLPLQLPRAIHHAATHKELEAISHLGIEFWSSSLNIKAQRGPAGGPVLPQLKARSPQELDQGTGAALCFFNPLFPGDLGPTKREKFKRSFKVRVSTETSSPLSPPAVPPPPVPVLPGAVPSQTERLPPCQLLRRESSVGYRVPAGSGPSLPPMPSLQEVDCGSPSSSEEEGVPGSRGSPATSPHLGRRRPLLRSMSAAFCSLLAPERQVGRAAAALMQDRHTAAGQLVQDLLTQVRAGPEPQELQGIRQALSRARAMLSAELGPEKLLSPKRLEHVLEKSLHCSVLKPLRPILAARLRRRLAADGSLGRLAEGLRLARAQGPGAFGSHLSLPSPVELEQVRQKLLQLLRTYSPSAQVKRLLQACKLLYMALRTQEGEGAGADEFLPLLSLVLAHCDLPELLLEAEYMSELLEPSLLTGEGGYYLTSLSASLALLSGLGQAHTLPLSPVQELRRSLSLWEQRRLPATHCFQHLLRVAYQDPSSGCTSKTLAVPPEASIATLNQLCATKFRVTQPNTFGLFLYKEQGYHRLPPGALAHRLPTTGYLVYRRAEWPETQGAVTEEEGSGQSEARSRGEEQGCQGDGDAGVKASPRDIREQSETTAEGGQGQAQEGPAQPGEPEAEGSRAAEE
# Paired box protein Pax-8, sequence (Q06710 whole entry): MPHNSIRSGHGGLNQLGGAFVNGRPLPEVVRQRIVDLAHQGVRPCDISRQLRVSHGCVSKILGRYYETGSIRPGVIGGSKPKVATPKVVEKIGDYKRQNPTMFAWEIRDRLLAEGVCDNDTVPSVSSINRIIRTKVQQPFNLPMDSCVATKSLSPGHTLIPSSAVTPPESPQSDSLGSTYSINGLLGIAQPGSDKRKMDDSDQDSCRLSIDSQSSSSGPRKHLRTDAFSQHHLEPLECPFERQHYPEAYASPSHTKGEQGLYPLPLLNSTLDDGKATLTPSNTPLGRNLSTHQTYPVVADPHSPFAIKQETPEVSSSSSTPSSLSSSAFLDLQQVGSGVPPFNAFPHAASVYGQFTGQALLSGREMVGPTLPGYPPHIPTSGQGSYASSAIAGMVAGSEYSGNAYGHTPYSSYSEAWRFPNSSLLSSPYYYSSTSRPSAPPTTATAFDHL
structure (smiles),measurement,setting,value
NNC(=O)c1cc2ccccc2cc1O,IC50,H9c2,> 79 µM (inactive)
same,AC50,[1],24 µM (active)
O=C(Nc1ccccc1)NN(C(=O)CCl)c1ccccc1,AC50,[2],3.11 µM (active)
same,AC50,Paired box protein Pax-8,4.57 µM (active)
same,AC50,[3],13.7 µM (active)
same,AC50,[1],8.5 µM (active)
same,EC50,Protein RecA,861 nM (active)
C[C@@H]1CCCCO[C@@H](CN(C)C(=O)Nc2ccc(C(F)(F)F)cc2)[C@@H](C)CN([C@H](C)CO)C(=O)c2cc(NC(=O)Cc3ccccc3)ccc2O1,AC50,[4],4.33 µM (active)
COC(=O)c1ccc(CSc2nnc(-c3c[nH]c4ccccc34)n2C)o1,IC50,[5],13.8 µM (inactive)
C[C@H](CO)N1C[C@H](C)[C@H](CN(C)S(=O)(=O)c2cccs2)Oc2c(NC(=O)Nc3ccc(C(F)(F)F)cc3)cccc2C1=O,AC50,[4],4.19 µM (active)
Nc1cc[n+]([O-])cc1CCc1ccccc1,IC50,[5],23.3 µM (inactive)
CCCCSc1cc(O)nc(N)n1,IC50,[5],22.2 µM (inactive)
COc1cc(NC(=O)c2cccs2)c(OC)cc1NC(=O)CCC(=O)Nc1ccc2ncccc2c1,EC50,BJ [6],8.14 µM (active)
same,EC50,BJ [7],> 150 µM (not active)
same,EC50,BJ [8],> 150 µM (not active)
same,EC50,BJ [9],4.28 µM (inconclusive)
same,EC50,[10],> 150 µM (not active)
Cc1cccc(-n2c(C)cc(/C=N\NC(=O)c3cccs3)c2C)c1,CC50,[11],23.4 µM (active)
same,IC50,Vero [12],14.7 µM (active)
same,CC50,Vero [13],> 25 µM (active)
CCOC(=O)c1c(C)n(C(=O)c2ccco2)c(=O)n1C(=O)c1ccco1,IC50,[5],11 µM (inactive)
same,IC50,Prothrombin,533 nM (active)
Cc1ccc(C(=O)N2CC(C)CC(C)C2)cc1NC1=NC2CS(=O)(=O)CC2S1 (stereo not drawn),IC50,[5],14.3 µM (inactive)
C[C@H](CO)N1C[C@H](C)[C@@H](CN(C)Cc2ccc(C(=O)Nc3ccccc3N)cc2)Oc2c(NC(=O)c3nc4ccccc4s3)cccc2C1=O,AC50,[4],1.6 µM (active)
COc1ccc(F)cc1CN1CCN(C(=O)CCC(=O)Nc2nnc(CC(C)C)s2)CC1,EC50,BJ [6],> 150 µM (not active)
same,EC50,BJ [7],> 150 µM (not active)
same,EC50,BJ [8],> 150 µM (inconclusive)
same,EC50,BJ [9],> 133 µM (inactive)
same,EC50,[10],> 150 µM (inconclusive)
C[C@H]1CN([C@@H](C)CO)C(=O)c2cccc(NC(=O)CCCCCC(=O)Nc3ccccc3N)c2O[C@H]1CN(C)S(=O)(=O)c1ccc(Cl)cc1,AC50,[4],3.53 µM (active)
C[C@]12CC[C@H](O)C[C@H]1CC[C@@H]1[C@@H]2C[C@@H](O)[C@]2(C)[C@@H](C3=CC(=O)OC3)CC[C@]12O [DIGOXIGENIN],IC50,[14],> 80 µM (inactive)
same,AC50,[2],1.16 µM (active)
same,AC50,Paired box protein Pax-8,2.35 µM (active)
same,IC50,Vero [12],< 0.05 µM (active)
same,CC50,Vero [13],2.1 µM (active)
COc1ccc(C2CC(c3cccs3)=NN2C(=O)CCl)cc1OC (stereo not drawn),EC50,[15],2.21 µM (active)
same,EC50,[16],2.64 µM (active)
same,AC50,[3],8.43 µM (active)
same,EC50,BJ [6],6.92 µM (active)
same,EC50,BJ [7],0.834 µM (active)
same,EC50,BJ [8],6.05 µM (inconclusive)
same,EC50,[10],5.26 µM (inconclusive)
same,IC50,Vero [12],> 25 µM (active)
same,EC50,Protein RecA,1410 nM (active)
same,CC50,Vero [13],3.51 µM (active)
O=[N+]([O-])c1cccc(/C(O)=C(/C([S-])=Nc2cccc3ccccc23)[n+]2ccccc2)c1,IC50,Vero [12],> 25 µM (active)
O=C(Cc1ccc(NC(=O)C2CCN(C(=O)c3ccccc3)CC2)cc1)Nc1ccc(C(=O)N2CCOCC2)cc1,IC50,[5],6.48 µM (active)
O=C(COC(=O)c1ccc(F)c([N+](=O)[O-])c1)NC(=O)NCc1ccccc1,AC50,[1],13.6 µM (active)
